What was measured:
[1] = tested on: K562-TAX (paclitaxel-resistant variant of K562); test: MTS cytotoxicity assay, K562-TAX; assay type: cell-based, human; conditions: Homo sapiens, K562-Tax, 72 h, read-out: IC50 cytotoxic activity K562-TAX
Method: (§1) The p53 deficient variant, HCT116p53−/−, was purchased from Horizon Discovery (Cambridge, UK). The daunorubicin-resistant CCRF-CEM cell line CEM-DNR bulk and paclitaxel-resistant K562-TAX sublines were developed in-house by exposing parental cell lines to escalating concentrations of daunorubicin and paclitaxel, respectively. Cells were maintained in the recommended culture medium (Sigma-Aldrich, St. Louis, MO) supplemented with 10% foetal calf serum, 100 U/mL penicillin, and 100 μg/mL streptomycin. The HUVEC line was obtained from PromoCell (Heidelberg, Germany). The cells were cultured in endothelial cell growth medium with SupplementMix for endothelial cells (PromoCell, Heidelberg, Germany). The incubation conditions were a humidified atmosphere of 95% air and 5% CO2 at 37 °C[10]. Cells were seeded in 384-well plates and after overnight incubation treated with compounds. All tested compounds were dissolved in 100% DMSO, and fourfold serial dilutions were performed using an Echo550 liquid handler (Labcyte, San Jose, CA). The experiments were performed in technical duplicates and three biological replicates. Cells were incubated with compounds for 72 h and thereafter 5 μL of MTS reagent was added to each well.

[2] = MTS cytotoxicity assay, MRC-5; assay type: cell-based; conditions: human
Method: as §1

CCRF-CEM lymphoblasts [3] = test: BrU incorporation analysis (RNA synthesis); assay type: cell-based, human
Method: (§2) To further characterise the mode of action of studied compounds, we analysed the cell cycle profile of CCRF-CEM cells treated with compounds for 24 h. […] The compounds ED1–ED9 and ED12 induced arrest in G2/M phase of the cell cycle (Figure 2(A)). To differentiate between G2 block and mitotic arrest, we used phospho-histone H3 (Ser10) mitotic marker (Figure 2(B)). […] Generally, dimers induced a dose-dependent increase of sub G1 cell population with fragmented DNA except for ED2 and ED4 (Figure 2(C)). […] To assess the proliferation of treated cells, they were subjected to 5-bromo-2-deoxyuridine (BrDU) labelling. […] Analogously, changes in 5-bromouridine (BrU) incorporation were examined to monitor overall RNA synthesis.
Prior to the trypsinisation, cells were treated with 1 mM BrU for 30 min. Subsequently, the cells were fixed in 1% paraformaldehyde with 0.05% of NP-40 for 15 min at RT and stored overnight at 4 °C. Fixed cells were washed with 1% glycine in PBS and stained with primary anti-BrdU antibody clone MoBu-1 crossreacting with BrU (Exbio, Vestec, Czech Republic) for 30 min at RT, washed with PBS and labelled with secondary anti-mouse-FITC antibody (Sigma-Aldrich, St. Louis, MO). Following 1-h incubation in 1% paraformaldehyde containing 0.05% NP-40, cells were stained with propidium iodide (0.1 mg/mL) and treated with RNase A (0.5 mg/mL) for 1 h at RT. The percentage of BrU positive cells was quantified using CellQuest software.

CCRF-CEM lymphoblasts [4] = test: Cell cycle analysis by flow cytometry (propidium iodide); assay type: cell-based, human
Method: as §2
(§3) Treated CCRF-CEM cells were harvested, washed with ice-cold phosphate-buffered saline (PBS), fixed in cold 70% ethanol and stored at −20 °C. Prior to analysis, fixed cells were permeabilised with 0.25% Triton X-100 in PBS for 15 min, blocked in 1% bovine serum, and incubated with anti-phospho-Histone H3 (Ser^10) antibody (Merck Millipore, Burlington, MA). Subsequently, the cells were treated with 50 μg/mL RNAse, stained with propidium iodide and analysed by FACSCalibur (Becton Dickinson, Franklin Lakes, NJ) flow cytometer at 488 nm. Cell cycle distribution (G1, S, and G2/M) was analysed using ModFitLT software (Verity, Topsham, ME), and reflects only viable population prior to the fixing procedure. Particles with lower propidium iodide content than G1 phase cells were classified as non-viable cells with fragmented DNA. Flow cytometry data visualisation was performed using OriginPro 2018b (b9.5.5.409) software (OriginLab Corporation, Northampton, MA)[10].

U2OS (osteosarcoma) = test: MTS cytotoxicity assay, U2OS; assay type: cell-based, human; conditions: Homo sapiens, U2OS, 72 h, read-out: IC50 cytotoxic activity U2OS
Method: as §1

[5] = tested on: CCRF-CEM (childhood T-cell acute lymphoblastic leukaemia); test: MTS cytotoxicity assay, CCRF-CEM; assay type: cell-based; conditions: Homo sapiens, 72 h, read-out: IC50 cytotoxic activity CCRF-CEM
Method: as §1

CCRF-CEM lymphoblasts [6] = test: Phospho-histone H3 (Ser10) mitotic marker, flow cytometry; assay type: cell-based, human
Method: as §2, §3

[7] = tested on: HCT116 (colorectal adenocarcinoma); test: MTS cytotoxicity assay, HCT116; assay type: cell-based; conditions: Homo sapiens, HCT-116, 72 h, read-out: IC50 cytotoxic activity HCT116
Method: as §1

[8] = MTS cytotoxicity assay, BJ; assay type: cell-based; conditions: human
Method: as §1

[9] = tested on: CEM-DNR (daunorubicin resistant variant of CCRF-CEM); test: MTS cytotoxicity assay, CEM-DNR; assay type: cell-based, human; conditions: Homo sapiens, CEM-DNR, 72 h, read-out: IC50 cytotoxic activity CEM-DNR
Method: as §1

porcine brain tubulin = biological target: T1, porcine brain tubulin (Sus scrofa, UniProt P02550+P02554); test: Tubulin polymerisation assay; assay type: biochemical; conditions: 10 μmol/L, Vmax relative to DMSO
T1 construct: purchased Cytoskeleton, Denver, CO; host or cells: porcine brain (tissue-purified)
T1 sequence (P02550 whole entry): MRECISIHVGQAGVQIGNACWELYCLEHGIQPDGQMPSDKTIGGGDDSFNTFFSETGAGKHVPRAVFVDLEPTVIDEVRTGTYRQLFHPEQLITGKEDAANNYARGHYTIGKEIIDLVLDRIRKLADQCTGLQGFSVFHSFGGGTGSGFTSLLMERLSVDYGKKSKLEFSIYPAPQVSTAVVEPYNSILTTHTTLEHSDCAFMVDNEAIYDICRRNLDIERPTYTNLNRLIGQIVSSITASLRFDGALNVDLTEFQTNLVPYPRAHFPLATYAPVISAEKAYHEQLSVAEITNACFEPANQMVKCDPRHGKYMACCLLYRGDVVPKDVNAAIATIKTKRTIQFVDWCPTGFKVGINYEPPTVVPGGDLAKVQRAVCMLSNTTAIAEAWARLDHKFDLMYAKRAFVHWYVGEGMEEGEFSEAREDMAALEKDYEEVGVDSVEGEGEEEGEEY
T1 sequence (P02554 whole entry): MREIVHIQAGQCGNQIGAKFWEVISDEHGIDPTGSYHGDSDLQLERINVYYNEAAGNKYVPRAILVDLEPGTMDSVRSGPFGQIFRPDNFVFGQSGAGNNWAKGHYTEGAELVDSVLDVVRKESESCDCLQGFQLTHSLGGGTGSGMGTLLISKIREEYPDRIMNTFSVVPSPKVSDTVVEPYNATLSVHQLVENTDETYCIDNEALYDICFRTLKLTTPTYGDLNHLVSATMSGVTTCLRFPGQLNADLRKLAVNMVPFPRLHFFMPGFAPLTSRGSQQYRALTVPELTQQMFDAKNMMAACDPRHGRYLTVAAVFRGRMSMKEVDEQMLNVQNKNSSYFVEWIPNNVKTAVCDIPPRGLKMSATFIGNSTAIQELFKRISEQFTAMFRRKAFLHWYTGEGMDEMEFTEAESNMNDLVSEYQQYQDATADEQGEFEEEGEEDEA
Method: Tubulin polymerisation assay kit (Cytoskeleton, Denver, CO) was used according to the manufacturer’s instructions. Polymerisation of porcine brain tubulin (>99% purity) was measured using an EnVision Multilabel Plate Reader (PerkinElmer, Waltham, MA) at 37 °C, in the presence of either 10 μmol/L test compounds or DMSO. Maximum polymerisation velocity (Vmax) was calculated from the polymerisation curves. Data visualisation was performed in OriginPro 2018b (b9.5.5.409) software (OriginLab Corporation, Northampton, MA)[10].

[10] = tested on: K562 (chronic myelogenous leukaemia); test: MTS cytotoxicity assay, K562; assay type: cell-based; conditions: Homo sapiens, K562, 72 h, read-out: IC50 cytotoxic activity K562
Method: as §1

[11] = tested on: HCT116p53−/− (p53 gene null variant of HCT116); test: MTS cytotoxicity assay, HCT116p53−/−; assay type: cell-based; conditions: Homo sapiens, HCT-116, 72 h, read-out: IC50 cytotoxic activity HCT116p53-
Method: as §1

[12] = MTS cytotoxicity assay, HUVEC; assay type: cell-based; conditions: human
Method: as §1

CCRF-CEM lymphoblasts [13] = test: BrDU incorporation analysis (DNA synthesis); assay type: cell-based, human
Method: as §2
Thirty minutes before harvesting, cells were pulse-labelled with 10 μM BrDU. After overnight fixation in ice-cold 70% ethanol, cells were resuspended in 2 M HCl for 30 min at room temperature (RT), then washed with 0.1 M Na2B4O7 and blocked with PBS containing 0.5% Tween-20 and 1% BSA. BrDU incorporation was analysed using anti-BrdU antibody clone MoBu-1 (Exbio, Vestec, Czech Republic) and a secondary anti-mouse-FITC antibody (Sigma-Aldrich, St. Louis, MO). Cells were washed with PBS and stained with 0.1 mg/mL propidium iodide and 0.5 mg/mL RNase A for 1 h at RT and analysed by flow cytometry using a 488 nm single beam laser (FACSCalibur, Becton Dickinson, Franklin Lakes, NJ). The percentage of cells with incorporated BrDU was analysed using CellQuest software.

[14] = tested on: A549 (lung adenocarcinoma); test: MTS cytotoxicity assay, A549; assay type: cell-based, human; conditions: Homo sapiens, A549, 72 h, read-out: IC50 cytotoxic activity A549
Method: as §1

| SMILES | IC50 [1] | IC50 at 72 h [2] | BrU, % of positive cells (CCRF-CEM lymphoblasts [3]; 1×IC50, 24 h) | BrU, % of positive cells (CCRF-CEM lymphoblasts [3]; 5×IC50, 24 h) | <G1 (sub-G1, fragmented DNA), % of positive cells (CCRF-CEM lymphoblasts [4]; 1×IC50, 24 h) | >G2/M (polyploidy), % of positive cells (CCRF-CEM lymphoblasts [4]; 1×IC50, 24 h) | G0/G1, % of positive cells (CCRF-CEM lymphoblasts [4]; 1×IC50, 24 h) | G2/M, % of positive cells (CCRF-CEM lymphoblasts [4]; 1×IC50, 24 h) | S, % of positive cells (CCRF-CEM lymphoblasts [4]; 1×IC50, 24 h) | <G1 (sub-G1, fragmented DNA), % of positive cells (CCRF-CEM lymphoblasts [4]; 5×IC50, 24 h) | >G2/M (polyploidy), % of positive cells (CCRF-CEM lymphoblasts [4]; 5×IC50, 24 h) | G0/G1, % of positive cells (CCRF-CEM lymphoblasts [4]; 5×IC50, 24 h) | G2/M, % of positive cells (CCRF-CEM lymphoblasts [4]; 5×IC50, 24 h) | S, % of positive cells (CCRF-CEM lymphoblasts [4]; 5×IC50, 24 h) | IC50 (U2OS (osteosarcoma)) | IC50 [5] | pH3Ser10, % of positive cells (CCRF-CEM lymphoblasts [6]; 1×IC50, 24 h) | pH3Ser10, % of positive cells (CCRF-CEM lymphoblasts [6]; 5×IC50, 24 h) | IC50 [7] | IC50 at 72 h [8] | further results |
| --- | --- | --- | --- | --- | --- | --- | --- | --- | --- | --- | --- | --- | --- | --- | --- | --- | --- | --- | --- | --- | --- |
| Cc1cc(C)c(Cn2cc([C@]3(O)CC[C@H]4[C@@H]5CCc6cc(O)ccc6[C@H]5CC[C@@]43C)nn2)cc1Cn1cc([C@]2(O)CC[C@H]3[C@@H]4CCc5cc(O)ccc5[C@H]4CC[C@@]32C)nn1 [ED9, 17,17′-[(4,6-Dimethyl-1,3-phenylene)bis(methylene-1H-1,2,3-triazole-1,4-diyl)]di[estra-1,3,5(10)-triene-3,17β-diol]] | > 50 µM | 3.2 ± 0.89 µM | 23.92% | 38.94% | 3.92% | 13.86% | 38.18% | 23.92% | 37.90% | 11.48% | 17.77% | 4.31% | 68.38% | 27.32% | 5.26 ± 1.69 µM | 1.69 ± 0.057 µM | 8.42% | 41.35% | 2.02 ± 0.3 µM | > 50 µM | IC50 [9]: > 50 µM; inhibitory activity against tubulin polymerisation (in words) (porcine brain tubulin): comparable or better inhibitory activity; IC50 [10]: 1.27 ± 0.12 µM; IC50 [11]: 1.96 ± 0.26 µM; IC50 at 72 h [12]: 0.038 ± 0.011 µM; BrDU, % of positive cells (CCRF-CEM lymphoblasts [13]; 1×IC50, 24 h): 46.72%; BrDU, % of positive cells (CCRF-CEM lymphoblasts [13]; 5×IC50, 24 h): 8.89%; IC50 [14]: > 50 µM |
| C[C@]12CC[C@@H]3c4ccc(O)cc4CC[C@H]3[C@@H]1CC[C@@]2(O)c1cn(Cc2cc(O)cc(Cn3cc([C@]4(O)CC[C@H]5[C@@H]6CCc7cc(O)ccc7[C@H]6CC[C@@]54C)nn3)c2)nn1 [ED2, (17β,17′β)-17,17′-[(5-Hydroxybenzene-1,3-diyl)bis(methanediyl-1H-1,2,3-triazole-1,4-diyl)]bisestra-1,3,5(10)-triene-3,17-diol] | > 50 µM | > 50 µM | 41.11% | 41.82% | 28.21% | 8.33% | 2.32% | 64.90% | 32.78% | 19.20% | 8.13% | 0.47% | 58.40% | 41.13% | > 50 µM | 1.7 ± 0.19 µM | 52.73% | 47.87% | 3.57 ± 0.66 µM | > 50 µM | IC50 [9]: > 50 µM; inhibitory activity against tubulin polymerisation (in words) (porcine brain tubulin): weak in vitro inhibition; IC50 [10]: 1.48 ± 0.19 µM; IC50 [11]: 4.26 ± 0.94 µM; IC50 at 72 h [12]: < 0.0122 µM; BrDU, % of positive cells (CCRF-CEM lymphoblasts [13]; 1×IC50, 24 h): 15.09%; BrDU, % of positive cells (CCRF-CEM lymphoblasts [13]; 5×IC50, 24 h): 21.14%; IC50 [14]: 6.69 ± 0.79 µM |
| CC(=O)Oc1c(Cn2cc([C@]3(O)CC[C@H]4[C@@H]5CCc6cc(O)ccc6[C@H]5CC[C@@]43C)nn2)cc(C)cc1Cn1cc([C@]2(O)CC[C@H]3[C@@H]4CCc5cc(O)ccc5[C@H]4CC[C@@]32C)nn1 [ED7, 2,6-Bis({4-[(17β)-3,17-dihydroxyestra-1,3,5(10)-trien-17-yl]-1H-1,2,3-triazol-1-yl}methyl)-4-methylphenyl acetate] | > 50 µM | > 50 µM | 52.67% | 27.20% | 40.74% | 7.12% | 32.36% | 33.76% | 33.88% | 45.33% | 7.43% | 32.48% | 32.87% | 34.65% | 3.86 ± 1.39 µM | 1.29 ± 0.13 µM | 0.68% | 11.22% | 1.61 ± 0.087 µM | > 50 µM | IC50 [9]: > 50 µM; inhibitory activity against tubulin polymerisation (in words) (porcine brain tubulin): comparable or better inhibitory activity; IC50 [10]: 0.77 ± 0.13 µM; IC50 [11]: 1.79 ± 0.17 µM; IC50 at 72 h [12]: 0.014 ± 0.002 µM; BrDU, % of positive cells (CCRF-CEM lymphoblasts [13]; 1×IC50, 24 h): 9.50%; BrDU, % of positive cells (CCRF-CEM lymphoblasts [13]; 5×IC50, 24 h): 5.65%; IC50 [14]: > 50 µM |
